PMC8536575, “Acute effects of the imidacloprid metabolite desnitro-imidacloprid on human nACh receptors relevant for neuronal signaling” (Archives of Toxicology, 2021)

How the values were obtained:
[1] = test system: nAChRs on LUHMES neurons; experiment: High-throughput Ca2+-imaging of LUHMES neurons (agonist effect); format: cell-based, human
Procedure: For Ca^2+-imaging, the cells were pre-differentiated for 48 h in cell culture flasks, detached and plated at a density of 20,000 cells and 30,000 cells per well on 0.1% PEI-coated 384-well and 96-well plates (Greiner Bio-One), respectively, for the Ca^2+-imaging. The cells were further differentiated for another 7 days. 50% of the medium was exchanged every 2–3 days.
Ca^2+-imaging was performed using HT Functional Drug Screening System FDSS/µCELL (Hamamatsu Photonics) at nominal 37 °C. The FDSS/µCell system enables the indirect recording of changes of [Ca^2+]i via a Ca^2+-sensitive fluorescent dye. The fluorescence signal of a complete 384-well plate is acquired at once with a high-speed and high-sensitivity digital ImagEM X2 EM-CCD camera (Electron Multiplying Charge-Coupled Device, Hamamatsu Photonics), but with limited spatial resolution. Therefore, the software only determines the mean fluorescence signal of each well rather than of individual cells. For compound application, the integrated dispenser head with 384 pipette tips was used, which can add the test compound to all wells simultaneously. Cells were preincubated with Cal-520 AM (AAT Bioquest) at a concentration of 1 µM for 1 h at 37 °C. For recording, the medium was exchanged by a buffer solution containing [mM]: 135 NaCl, 5 KCl, 0.2 MgCl2, 2.5 CaCl2, 10 HEPES, and 10 D-glucose, pH 7.4. Test compound application was executed after obtaining a 1.5 min baseline recording. Where applicable, a second application was executed 4.5 min after the first application. The total recording never exceeded 8 min.
For the high-throughput Ca^2+-imaging data obtained in LUHMES cells, an offset correction using the FDSS software (version 3.2) was performed. Afterward, the data were exported and further analyzed with scripts written in R (version 3.6.3) (R Core Team [2020]). The concentration–response curves were fitted using a log-logistic model described by Ritz et al. ([2015]), utilizing the R package drc with its function drm() and LL2.2() with the following equation: f(x) = d/[1 + exp(b(log(x) − ẽ))] (Ritz et al. [2015]). The logarithm of the half-maximal effective concentration (logEC50) between 0 and the upper limit (d), which was set to 1, is represented by ẽ, x denotes the concentration, and b stands for the slope parameter (Ritz et al. [2015]). In cases with normalizations to responses induced by other compounds, the function LL2.3() was used with a variable upper limit (d; Ritz et al. [2015]). The same equation was used to determine the half-maximal inhibitory concentration (logIC50). Then the logEC50 and logIC50 values were converted into the pIC50 and pEC50 values, which are the negative logarithms to base 10.

[2] = test system: nAChRs on SH-SY5Y cells; experiment: Desensitization of the nicotine response of SH-SY5Y cells; format: cell-based, human; details: pretreatment 20 min, nicotine 10 µM, PNU 10 µM
Procedure: To measure acute changes in the average [Ca^2+]i of a population, SH-SY5Y cells were examined in the 96-well plate fluorescence reader FlexStation II (Molecular Devices) using the fluorophore Fura-2AM. SH-SY5Y (35,000 cells/well; 109,375 cells/cm^2) were seeded in maintenance culture medium in black 96-well plates with clear bottom (Corning, #3603). 24 h after seeding, maintenance medium was replaced with differentiation medium. […] The fluorescence was assessed at 37 °C in the fluorescence plate reader (FlexStation II; Molecular Devices) at two different excitation wavelengths, 340 nm for Ca^2+-bound Fura-2 and 380 nm for free Fura-2, and at 510 nm emission, every 3.1 s using bottom read settings. After 26–29 s of initial baseline recording of the fluorescence intensity, 10 µl of the compound dilution (10 times higher than the final concentration to the cells) was transferred automatically by the FlexStation II (“Flex mode”) to the cell plate wells (five wells per concentration) and the fluorescence intensity was monitored for another 150 s. The ratio of fluorescence intensity at 340/380 nm was determined and the mean values from the baseline recording before the addition of test compounds was set to zero. The acute change in the Ca^2+ influx after the addition of the compounds was quantified as the area under the curve (AUC) using the SoftMax Pro 4.8 software (Molecular Devices). […]

[3] = target: T1, human α4β2 (HS) nAChR (Homo sapiens, UniProt P17787+P43681); experiment: Two-electrode voltage-clamp recordings, Xenopus laevis oocytes expressing human α4β2 (HS) nAChR; format: cell-based
T1 construct: expressed in transfected cells; host or cells: Xenopus laevis oocytes (EcoCyte Bioscience), mRNA injection, 3 ng α4 and 30 ng β2
T1 sequence (P43681 27-627): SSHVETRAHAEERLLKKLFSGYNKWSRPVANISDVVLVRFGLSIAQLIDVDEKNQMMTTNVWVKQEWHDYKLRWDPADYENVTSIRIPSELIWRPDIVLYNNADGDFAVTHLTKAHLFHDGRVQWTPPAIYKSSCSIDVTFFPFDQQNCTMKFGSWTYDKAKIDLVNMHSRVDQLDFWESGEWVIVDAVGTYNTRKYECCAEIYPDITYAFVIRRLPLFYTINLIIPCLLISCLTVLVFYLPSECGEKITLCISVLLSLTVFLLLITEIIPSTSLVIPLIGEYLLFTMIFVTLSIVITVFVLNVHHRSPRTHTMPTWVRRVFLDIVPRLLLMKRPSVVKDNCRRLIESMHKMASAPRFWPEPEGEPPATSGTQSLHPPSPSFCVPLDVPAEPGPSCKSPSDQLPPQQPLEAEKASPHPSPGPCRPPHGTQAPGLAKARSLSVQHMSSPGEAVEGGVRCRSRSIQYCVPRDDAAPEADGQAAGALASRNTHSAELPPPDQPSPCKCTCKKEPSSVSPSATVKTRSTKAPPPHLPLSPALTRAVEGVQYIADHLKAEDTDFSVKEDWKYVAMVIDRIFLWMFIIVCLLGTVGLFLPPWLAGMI
T1 sequence (P17787 26-502): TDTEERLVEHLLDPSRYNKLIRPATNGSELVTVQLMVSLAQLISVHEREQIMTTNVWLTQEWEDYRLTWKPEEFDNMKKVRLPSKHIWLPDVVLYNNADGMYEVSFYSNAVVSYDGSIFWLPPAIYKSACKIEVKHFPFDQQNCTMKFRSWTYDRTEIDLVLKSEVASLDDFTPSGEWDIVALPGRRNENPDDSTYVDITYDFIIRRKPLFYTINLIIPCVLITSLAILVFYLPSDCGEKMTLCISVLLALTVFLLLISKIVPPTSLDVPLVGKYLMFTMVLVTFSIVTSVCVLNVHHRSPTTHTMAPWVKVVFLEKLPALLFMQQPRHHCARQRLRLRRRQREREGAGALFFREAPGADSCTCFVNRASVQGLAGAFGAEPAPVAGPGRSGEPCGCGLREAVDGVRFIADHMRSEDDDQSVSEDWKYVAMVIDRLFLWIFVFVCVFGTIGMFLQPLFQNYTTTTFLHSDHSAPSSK

[4] = target: T2, human α7 nAChR (Homo sapiens, UniProt P36544); experiment: Two-electrode voltage-clamp recordings, Xenopus laevis oocytes expressing human α7 nAChR; format: cell-based
T2 construct: expressed in transfected cells; host or cells: Xenopus laevis oocytes, injection of 30 ng mRNA (pCDNA3.1, T7 transcript)
T2 sequence (P36544 23-502): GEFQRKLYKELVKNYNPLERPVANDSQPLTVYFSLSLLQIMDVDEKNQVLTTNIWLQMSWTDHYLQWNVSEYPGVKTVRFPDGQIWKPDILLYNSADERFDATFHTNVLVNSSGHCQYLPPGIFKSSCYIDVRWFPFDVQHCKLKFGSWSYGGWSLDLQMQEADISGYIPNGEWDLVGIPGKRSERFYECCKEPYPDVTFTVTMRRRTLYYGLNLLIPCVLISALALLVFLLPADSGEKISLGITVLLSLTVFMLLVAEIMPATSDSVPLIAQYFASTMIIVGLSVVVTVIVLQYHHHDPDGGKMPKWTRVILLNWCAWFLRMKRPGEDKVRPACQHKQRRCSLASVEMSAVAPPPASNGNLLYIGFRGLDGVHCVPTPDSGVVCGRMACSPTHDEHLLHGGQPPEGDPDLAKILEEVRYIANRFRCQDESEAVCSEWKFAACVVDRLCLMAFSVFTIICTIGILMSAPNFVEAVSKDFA

[5] = from curve-fitted concentration–response data

Compound: NC1=NCCN1Cc1ccc(Cl)nc1 [DN-IMI, desnitro-imidacloprid]
- pEC50 of [Ca2+]i response (peak amplitude) ([1]; LUHMES neurons, absence of PNU, normalized to the maximal response stimulated by DN-IMI, tested ≤ 100 µM): 6.6
- increase of the maximal amplitude by PNU ([1]; PNU-120596 10 µM): around 40%
- upper asymptote, % of the maximal response ([1]; absence of PNU): 53%
- relative half maximum (turning point) ([1]; absence of PNU, normalized to maximal response to DN-IMI in presence of PNU): 6.8 ± 0.04 -log(M)
- concentrations triggering [Ca2+]i responses ([1]; human neurons): ≥ 100 nM
- BMC for 20% response ([1]; in different systems ([Ca2+]i signaling and single nAChR data)): 100 to 300 nM
- relative half maximum (turning point) ([1]; presence of PNU (10 µM)): 6.5 ± 0.03 -log(M)
- upper asymptote, % of the maximal response ([1]; presence of PNU (10 µM)): 93%
- effect of pretreatment on the response to nicotine in SH-SY5Y [2]: reduced/abolished the response to nicotine in the submicromolar range
- EC50 [3]: 0.501 µM
- fold lower concentrations activating α4β2 (HS) than α7 and α3β4 nAChRs [3]: 20 fold
- higher potency on α4β2 (HS) nAChR than on other subtypes ([3]; comparison of EC25 values, α4β2 (HS) vs α7 and α3β4): > 1 log-step
- absolute EC25 [3, 5]: 0.33 µM
- estimated maximum amplitude, % of nicotine's ([3]; normalized to nicotine (10 µM)): 64%
- EC50 [4]: 31.6 µM
- estimated maximum, % of the maximal response to nicotine [4]: ~ 81%
- higher potency of DN-IMI than nicotine ([4]; EC25 comparison on the receptors other than α4β2 (HS): α7 and α3β4): about 0.6 log-steps
- absolute EC25 [4, 5]: 7.6 µM
- estimated maximum ([4]; normalized to nicotine (1 mM)): ~ 0.81
- Emax ([4]; read-out: estimated maximum, % of the maximal response to nicotine): 83%
